Experimental findings from patent US10238630B2, “Use of eribulin and poly (ADP ribose) polymerase (PARP) inhibitors as combination therapy for the treatment of cancer” (Eisai R&D Management Co., Ltd., priority 2014, dated 2019) are described below.

Test [1] deals with MDA-MB-436 human breast cancer xenografts. Put plainly: Antitumor activity against subcutaneous MDA-MB-436 human breast cancer xenografts in SCID mice (three studies). The format is in vivo. The procedure:
MDA-MB-436 human triple negative breast cancer cells are BRCA1 mutant and PTEN null. Cells were maintained in monolayer cultures in RPMI-1640 growth medium supplemented with 10% fetal bovine serum at 37° C. in a 5% CO2 humidified incubator. On the day of inoculation, cells were harvested by trypsinization, washed, and resuspended in ice-cold PBS. Female immunodeficient SCID mice were inoculated subcutaneously near the right axillary area with MDA-MB-436 cells (5×10^6) in a 1:1 ratio (50 μL each) with Matrigel™ in a volume of 0.1 mL in phosphate buffered saline, using a 26-gauge needle. A total of 125 mice, approximately 6 weeks old were implanted with MDA-MB-436 cells.
E7449, carboplatin and E7389 were evaluated as single agents and in combination for antitumor activity against MDA-MB-436 human breast cancer xenografts in SCID mice. Three separate studies were performed. The first experiment consisted of a vehicle control group, an E7449 single agent group, two groups treated with single agent E7389 and 2 combination drug-treated groups (Table 1). Thirty mice were inoculated with MDA-MB-436 cells and on Day 58 following implantation, tumor volumes were measured and mice were randomized into the 6 treatment groups based on tumor volume (average of 300 mm^3). Following randomization, drug treatment was initiated. Groups A to D were composed of 5 mice and groups E and F consisted of 4 mice for a total of 28 mice on the first day of treatment. E7449 was formulated in 0.5% methyl cellulose and orally administered once daily for 28 days (starting on Day 58) at 60 mg/kg based on body weight at 0.1 mL per 10 g. E7389 was formulated in saline and was intravenously administered once every 4 days, 4 times (Day 58, 62, 66, and 70) at a dosage of 0.4 or 1.6 mg/kg as single agent or in combination with E7449, based on body weight at 0.1 mL per 10 g. The control group was treated with oral vehicle (0.5% methyl cellulose in water) daily and intravenous vehicle (saline) once every 4 days, 4 times. E7449 or vehicle was administered first and when dosing of all animals was complete, E7389 was administered to animals receiving the combination.
The second experiment consisted of a vehicle control group, an E7449 single agent group, 2 groups treated with single agent carboplatin, and 2 combination drug-treated groups (Table 2). Thirty-five mice were inoculated with MDA-MB-436 cells and on Day 57, following implantation, tumor volumes were measured and mice were randomized into 6 treatment groups based on tumor volume (average of 250 mm^3). Following randomization drug treatment was initiated. Groups A to D were composed of 5 mice and groups E and F consisted of 6 mice for a total of 32 mice on the first day of treatment. E7449, formulated in 0.5% methyl cellulose was orally administered daily for 28 days (starting on Day 57), at 60 mg/kg based on body weight at 0.1 mL per 10 g. Carboplatin was formulated in saline and was intravenously administered once on the first day of treatment (Day 57) at a dosage of 15 or 60 mg/kg as a single agent or in combination with E7449 based on body weight at 0.1 mL per 10 g. The control group was treated with oral vehicle (0.5% methyl cellulose in water) daily and intravenous vehicle (saline) once on Day 57. E7449 or vehicle was administered first, and when dosing of all animals was complete carboplatin was administered to animals receiving the combination.
The third experiment consisted of a vehicle control group, 3 groups treated with single agent E7449, E7389, or carboplatin, 3 groups treated with double combinations of E7449+E7389, E7449+carboplatin, and E7389+carboplatin and a group treated with the three-drug combination (Table 3). Sixty mice were inoculated with MDA-MB-436 cells and on Day 41 following implantation, tumor volumes were measured and mice were randomized into 8 treatment groups based on tumor volume (average of 250 mm^3). Following randomization drug treatment was initiated.
(In general: A xenograft is tissue or cells of one species grown in another, often human tumour cells in immunodeficient mice.)

In test [2] the test system is MDA-MB-231 human breast cancer xenografts. Put plainly: Antitumor activity against subcutaneous MDA-MB-231 human breast cancer xenografts in athymic mice (two studies). The format is in vivo. The conditions noted are these: carboplatin 15 and 60 mg/kg IV QDx1, single agent. The procedure:
MDA-MB-231 human triple negative breast cancer cells are wild type for BRCA1 and 2 and PTEN. Cells were maintained in monolayer cultures in RPMI-1640 growth medium supplemented with 10% fetal bovine serum at 37° C. in a 5% CO2 humidified incubator. On the day of inoculation, cells were harvested by trypsinization, washed, and resuspended in ice-cold PBS. Female immunodeficient athymic mice were inoculated subcutaneously near the right axillary area with MDA-MB-231 cells (5×10^6) in a 1:1 ratio (50 μL each) with Matrigel™ in a volume of 0.1 mL in phosphate buffered saline, using a 26-gauge needle. A total of 94 mice, approximately 6 weeks old were implanted with MDA-MB-231 cells.
E7449, carboplatin and E7389 were evaluated as single agents and in combination for antitumor activity against MDA-MB-231 human breast cancer xenografts in athymic mice. The first experiment consisted of a vehicle control group, an E7449 single agent group, 2 groups treated with single agent E7389 and 2 combination drug-treated groups (Table 5). Thirty-nine mice were inoculated with MDA-MB-231 cells and on Day 21 following implantation, tumor volumes were measured and mice were randomized into the 6 treatment groups based on tumor volume (average of 300 mm^3). Following randomization drug treatment was initiated. Each group was composed of 5 mice for a total of 30 mice on the first day of treatment. E7449 was formulated in 0.5% methyl cellulose and orally administered once daily for 28 days at 100 mg/kg based on body weight at 0.1 mL per 10 g. E7389 was formulated in saline and was intravenously administered once every 4 days, 4 times (Day 21, 25, 29, and 33) at a dosage of 0.05 or 0.1 mg/kg as single agent or in combination with E7449, based on body weight at 0.1 mL per 10 g. The control group was treated with oral vehicle (0.5% methyl cellulose in water) daily and intravenous vehicle (saline) once every 4 days, 4 times. E7449 or vehicle was administered first and when dosing of all animals was complete E7389 was administered to animals receiving the combination.
The second experiment consisted of a vehicle control group, 2 groups treated with single agent E7449, 2 groups treated with single agent carboplatin and 3 combination drug-treated groups (Table 6). Fifty five mice were inoculated with MDA-MB-231 cells and on Day 18 following implantation, tumor volumes were measured and mice were randomized into 8 treatment groups based on tumor volume (average of 300 mm^3). Following randomization drug treatment was initiated. Each group consisted of 5 mice for a total of 40 mice on the first day of treatment. E7449, formulated in 0.5% methyl cellulose was orally administered daily for 28 days, at 60 or 100 mg/kg based on body weight at 0.1 mL per 10 g. Carboplatin was formulated in saline and was intravenously administered once on the first day of treatment (Day 18) at a dosage of 15 or 60 mg/kg as a single agent or in combination with E7449 based on body weight at 0.1 mL per 10 g. The control group was treated with oral vehicle (0.5% methyl cellulose in water) daily and intravenous vehicle (saline) once on Day 18. E7449 or vehicle was administered first and when dosing of all animals was complete carboplatin was administered to animals receiving the combination.
Drug treatment was initiated 21 or 18 days post tumor implantation, in the E7389 and carboplatin combination studies respectively, and continued for 28 days. […]

`N.N.O=C([O-])C1(C(=O)[O-])CCC1.[Pt+2]` [carboplatin]: the “antitumor effect (tumor volume)” value in test [1] (E7449+carboplatin study, carboplatin 15 and 60 mg/kg IV QDx1, single agent) is reported as “Dose-dependent antitumor activity”; in test [1] (triple combination study, carboplatin 7.5 mg/kg IV QDx1, single agent), “statistically significant tumor growth inhibition”; in test [2], “Modest antitumor activity”.
